Legend:
Assay type in all cases: in vitro ADME
[1] = Assay 3. In vitro Colonic Material Stability Assay
[2] = Assay 2. Stability in Simulated Intestinal Fluid (SIF); settings: SIF pH 6.7 with pancreatin, 1 μM, 37° C.
In short: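 Degradation rates came from LC/MS of acetonitrile-quenched samples drawn at intervals, starting at T0. The medium was freshly made pH 6.7 FaSSIF containing pancreatin, and test compound was present at 1 µM while being shaken at 37 °C.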

[3] = Assay 1. Stability in Simulated Gastric Fluid (SGF); settings: SGF pH 1.6 with pepsin, 1 μM, 37° C.
In short: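 Degradation rate from LC/MS of acetonitrile-quenched aliquots (T0, then regular intervals). Fresh SGF (pH 1.6 NaCl, FaSSIF powder, pepsin 0.1 mg/mL) held compound at 1 μM final, 37° C; 1 mM DMSO stock.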

[4] = colonic material slurry, anaerobic, 1 or 10 μM

CCC(=O)OC[C@H]1O[C@H](OC)[C@H](OC(=O)CC)[C@@H](OC(=O)CC)[C@H]1OC(=O)CC [Compound 57, [(2R,3S,4S,5R,6S)-6-methoxy-3,4,5-tris(propanoyloxy)oxan-2-yl]methyl propanoate]
Assay 3 (% Remaining at 24 h) [1, 4]: A (<25% of the tested compound remaining) | Assay 2 (SIF) (% @ Remaining 4 hours) [2]: A (<25% of the tested compound remaining) | Assay 1 (SGF) (% Remaining @ 1 hour) [3]: C (>75% of the tested compound remaining)

C[C@@H]1OC(O)[C@@H](OC(=O)CCc2c[nH]c3ccccc23)[C@H](OC(=O)CCc2c[nH]c3ccccc23)[C@@H]1OC(=O)CCc1c[nH]c2ccccc12 (stereo partly drawn) [Compound 62, (2S,3R,4R,5S)-6-hydroxy-4,5-bis({[3-(1H-indol-3-yl)propanoyl]oxy})-2-methyloxan-3-yl 3-(1H-indol-3-yl)propanoate]
Assay 3 (% Remaining at 24 h) [1, 4]: C (>75% of the tested compound remaining) | Assay 2 (SIF) (% @ Remaining 4 hours) [2]: A (<25% of the tested compound remaining) | Assay 1 (SGF) (% Remaining @ 1 hour) [3]: C (>75% of the tested compound remaining)

CCC(=O)O[C@@H]1[C@H](OC)OC[C@@H](OC(=O)CC)[C@H]1OC(=O)CC [Compound 68, (2R,3S,4R,5R)-2-methoxy-3,5-bis(propanoyloxy)oxan-4-yl propanoate]
Assay 3 (% Remaining at 24 h) [1, 4]: B (25-75% of the tested compound remaining) | Assay 2 (SIF) (% @ Remaining 4 hours) [2]: A (<25% of the tested compound remaining) | Assay 1 (SGF) (% Remaining @ 1 hour) [3]: C (>75% of the tested compound remaining)

O=C(CCc1c[nH]c2ccccc12)O[C@@H]1OC[C@H](OC(=O)CCc2c[nH]c3ccccc23)[C@H](OC(=O)CCc2c[nH]c3ccccc23)[C@H]1OC(=O)CCc1c[nH]c2ccccc12 [Compound 69, (2S,3R,4S,5S)-3,4,5-tris({[3-(1H-indol-3-yl)propanoyl]oxy})oxan-2-yl 3-(1H-indol-3-yl)propanoate]
Assay 3 (% Remaining at 24 h) [1, 4]: A (<25% of the tested compound remaining) | Assay 2 (SIF) (% @ Remaining 4 hours) [2]: A (<25% of the tested compound remaining) | Assay 1 (SGF) (% Remaining @ 1 hour) [3]: B (25-75% of the tested compound remaining)

C[C@@H]1O[C@H](OC(=O)CCc2c[nH]c3ccccc23)[C@@H](OC(=O)CCc2c[nH]c3ccccc23)[C@H](OC(=O)CCc2c[nH]c3ccccc23)[C@@H]1OC(=O)CCc1c[nH]c2ccccc12 [Compound 70, (2R,3S,4R,5R,6S)-3,4,5-tris({[3-(1H-indol-3-yl)propanoyl]oxy})-6-methyloxan-2-yl 3-(1H-indol-3-yl)propanoate]
Assay 3 (% Remaining at 24 h) ([1]; Run 1, colonic material): A (<25% of the tested compound remaining) | Assay 3 (% Remaining at 24 h) ([1]; Run 2, colonic material): B (25-75% of the tested compound remaining) | Assay 2 (SIF) (% @ Remaining 4 hours) [2]: A (<25% of the tested compound remaining) | Assay 1 (SGF) (% Remaining @ 1 hour) [3]: B (25-75% of the tested compound remaining)

CCCC(=O)O[C@@H]1[C@@H](OC(=O)CCC)[C@@H](OC)OC[C@H]1OC(=O)CCC [Compound 71, (2S,3R,4S,5R)-4,5-bis(butanoyloxy)-2-methoxyoxan-3-yl butanoate]
Assay 3 (% Remaining at 24 h) [1, 4]: A (<25% of the tested compound remaining) | Assay 2 (SIF) (% @ Remaining 4 hours) [2]: A (<25% of the tested compound remaining) | Assay 1 (SGF) (% Remaining @ 1 hour) [3]: B (25-75% of the tested compound remaining)

CCC(=O)O[C@@H]1[C@@H](OC(=O)CC)[C@@H](OC)OC[C@H]1OC(=O)CC [Compound 72, (2S,3R,4S,5R)-2-methoxy-4,5-bis(propanoyloxy)oxan-3-yl propanoate]
Assay 3 (% Remaining at 24 h) [1, 4]: A (<25% of the tested compound remaining) | Assay 2 (SIF) (% @ Remaining 4 hours) [2]: B (25-75% of the tested compound remaining) | Assay 1 (SGF) (% Remaining @ 1 hour) [3]: C (>75% of the tested compound remaining)

CCC(=O)O[C@@H]1[C@@H](OC(=O)CC)[C@H](OC)OC[C@H]1OC(=O)CC [Compound 73, (2R,3R,4S,5R)-2-methoxy-4,5-bis(propanoyloxy)oxan-3-yl propanoate]
Assay 3 (% Remaining at 24 h) [1, 4]: A (<25% of the tested compound remaining) | Assay 2 (SIF) (% @ Remaining 4 hours) [2]: A (<25% of the tested compound remaining) | Assay 1 (SGF) (% Remaining @ 1 hour) [3]: C (>75% of the tested compound remaining)

CCC(=O)O[C@@H]1[C@@H](OC(=O)CC)[C@H](OC(=O)CCc2c[nH]c3ccccc23)OC[C@@H]1OC(=O)CC [Compound 74, (2S,3R,4S,5S)-3,4,5-tris(propanoyloxy)oxan-2-yl 3-(1H-indol-3-yl)propanoate]
Assay 3 (% Remaining at 24 h) [1, 4]: A (<25% of the tested compound remaining) | Assay 2 (SIF) (% @ Remaining 4 hours) [2]: A (<25% of the tested compound remaining) | Assay 1 (SGF) (% Remaining @ 1 hour) [3]: C (>75% of the tested compound remaining)

CCC(=O)O[C@@H]1[C@@H](OC(=O)CC)[C@H](OC(=O)Cc2c[nH]c3ccccc23)OC[C@H]1OC(=O)CC [Compound 76, (2S,3R,4S,5R)-2-{[2-(1H-indol-3-yl)acetyl]oxy}-4,5-bis(propanoyloxy)oxan-3-yl propanoate]
Assay 3 (% Remaining at 24 h) [1, 4]: A (<25% of the tested compound remaining) | Assay 2 (SIF) (% @ Remaining 4 hours) [2]: A (<25% of the tested compound remaining) | Assay 1 (SGF) (% Remaining @ 1 hour) [3]: C (>75% of the tested compound remaining)

CCC(=O)O[C@H]1[C@H](OC(=O)CC)[C@@H](OC(=O)CCc2c[nH]c3ccccc23)O[C@@H](C)[C@H]1OC(=O)CC [Compound 77, (2R,3S,4R,5R,6S)-6-methyl-3,4,5-tris(propanoyloxy)oxan-2-yl 3-(1H-indol-3-yl)propanoate]
Assay 3 (% Remaining at 24 h) [1, 4]: A (<25% of the tested compound remaining) | Assay 2 (SIF) (% @ Remaining 4 hours) [2]: C (>75% of the tested compound remaining) | Assay 1 (SGF) (% Remaining @ 1 hour) [3]: C (>75% of the tested compound remaining)

CCC(=O)O[C@@H]1O[C@@H](C)[C@H](OC(=O)CC)[C@@H](OC(=O)CC)[C@H]1OC(=O)CC [Compound 78, (2S,3R,4R,5S,6S)-6-methyl-3,4,5-tris(propanoyloxy)oxan-2-yl propanoate]
Assay 3 (% Remaining at 24 h) [1, 4]: A (<25% of the tested compound remaining) | Assay 2 (SIF) (% @ Remaining 4 hours) [2]: A (<25% of the tested compound remaining) | Assay 1 (SGF) (% Remaining @ 1 hour) [3]: B (25-75% of the tested compound remaining)

O=C(CCc1c[nH]c2ccccc12)O[C@@H]1OC[C@@H](OC(=O)CCc2c[nH]c3ccccc23)[C@@H](OC(=O)CCc2c[nH]c3ccccc23)[C@H]1OC(=O)CCc1c[nH]c2ccccc12 [Compound 80, (2S,3R,4R,5R)-3,4,5-tris({[3-(1H-indol-3-yl)propanoyl]oxy})oxan-2-yl 3-(1H-indol-3-yl)propanoate]
Assay 3 (% Remaining at 24 h) [1, 4]: A (<25% of the tested compound remaining) | Assay 2 (SIF) (% @ Remaining 4 hours) [2]: A (<25% of the tested compound remaining) | Assay 1 (SGF) (% Remaining @ 1 hour) [3]: C (>75% of the tested compound remaining)

— patent publication US12115178B2, “Acylated active agents and methods of their use for the treatment of autoimmune disorders” (Flagship Pioneering Innovations V, Inc., priority 2018, dated 2024)
